The structures appear in SMILES notation.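 Cultured in 96-well plates, cells were exposed to test compound for 48 hours across five concentrations. TGI: concentration producing complete growth inhibition.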 Bounds are passed on as bounds.

Holding throughout (assay): NCI tumour cell line growth inhibition, 48 h
For test [1], the system named is SNB-19 CNS.
Test [2] concerns MALME-3M melanoma.
The subject of test [3] is NCI-H226 lung.
The test system of test [4] is SW-620 colon.
In test [5] the test system is IGROV1 ovarian.
Test [6] concerns SK-OV-3 ovarian.
For test [7], the system named is NCI-H460 lung.
Test [8] deals with MDA-MB-231 breast.

For `c1ccc2c(c1)cc1c3[nH]c4ccccc4c3ccn21`, the TGI in test [1] was greater than 10 µM; in test [2] it was 4.48 µM; in test [3] it was greater than 10 µM; in test [4], greater than 10 µM; in test [5], greater than 10 µM; in test [6] it was greater than 10 µM. Further, the TGI in test [7] and in test [8] was greater than 10 µM each time.

As for `CCOc1cc2c(cc1O)CC[C@@H]1[C@@H]2CC[C@]2(C)C(N)CC[C@@H]12` (stereo partly drawn), the TGI in test [1] was 28.2 µM; in test [2], 28.2 µM; in test [3], 10.4 µM; in test [4], 14.3 µM; in test [5], 12.6 µM; in test [6], 17.6 µM. Moreover, the TGI came to 11.6 µM in test [7] and 5.56 µM in test [8].

Consider `CN(C)CCCNc1c(C#N)[n+]([O-])c2cc(Cl)ccc2[n+]1[O-]`, for which the TGI was greater than 100 µM in test [1]; 17.4 µM in test [2]; 48.5 µM in test [3]; 37.1 µM in test [4]; 10.5 µM in test [5]; greater than 67.1 µM in test [6]. The TGI in test [7] is 13.2 µM; in test [8], 37.2 µM.

Take `OC1[C@H](O)CN(OCc2ccccc2)C[C@@H]1O` (stereo partly drawn): the TGI in test [1], in test [2], in test [3], in test [4], in test [5] and in test [7] was greater than 100 µM in each case. This compound had a TGI in test [8] greater than 100 µM.

As to `CC(C)(C)OC(=O)NC(CCC(=O)OCc1ccccc1)C(=O)NCCCO` (stereo not drawn), the TGI in test [1], in test [2], in test [3], in test [4], in test [5] and in test [6] was greater than 100 µM in each case. For the same compound, the TGI in test [7] and in test [8] was greater than 100 µM each time.

With `COc1cccc(N2C(=O)/C(=C\c3ccccc3)SC2c2cc(OC)c(OC)c(OC)c2)c1` (stereo not drawn), the TGI in test [1], in test [3], in test [5], in test [6] and in test [8] was greater than 100 µM each time.

Take `Nc1[nH]c(=S)c2c(N)n[nH]c2c1C(=O)Nc1ccccc1`: the TGI in test [1], in test [2], in test [3], in test [4], in test [5] and in test [6] was greater than 100 µM each time. Moreover, the TGI in test [7] and in test [8] was greater than 100 µM each time.

Take `NC1CC(Cl)c2c(Cl)sc(Cl)c21` (stereo not drawn): the TGI in test [2], in test [3], in test [4], in test [5], in test [6] and in test [7] was greater than 100 µM in each case. In test [8], this compound returned a TGI greater than 100 µM.

For the compound `O=C(c1ccccc1)N1OCCC1Nc1ccc(Br)cc1` (stereo not drawn), the TGI in test [1], in test [2], in test [3], in test [4], in test [5] and in test [6] was greater than 10 µM each time. Moreover, the TGI in test [7] and in test [8] was greater than 10 µM throughout.

For `CN(C(=O)C1CCCCCC1=O)c1ccccc1Cl` (stereo not drawn), the TGI in test [1], in test [2], in test [3], in test [4], in test [5] and in test [6] was greater than 100 µM in each case. In addition, the TGI in test [7] and in test [8] was greater than 100 µM in each case.

Regarding `O=C(Cc1ccc(Cl)cc1)Nc1ccc2oc(-c3ccccc3)nc2c1`, the TGI in test [1], in test [2], in test [3], in test [4], in test [5] and in test [6] was greater than 100 µM in each case. Further, the TGI in test [7] and in test [8] was greater than 100 µM in each case.

For `CC(=O)N1C(NN(C)C)CCN1c1ccccc1` (stereo not drawn), the TGI in test [2], in test [4], in test [5], in test [6] and in test [8] was greater than 10 µM each time.

On to `CC1OC(OC2C(OC(=O)[C@@H]3CC(C)(C)C[C@@H]4C5=CC[C@@H]6[C@@]7(C)C[C@H](O)[C@H](OC8OC(CO)C(O)C(O)C8O)[C@@](C)(CO)C7[C@H](O)C[C@@]6(C)[C@]5(C)C[C@@H](O)[C@H]43)OCC(O)C2O)C(O)C(O)C1O` (stereo partly drawn), for which the TGI in test [1], in test [3], in test [4], in test [5], in test [6] and in test [7] was greater than 15 µM each time. For the same compound, the TGI in test [8] was greater than 15 µM.

With `O=c1n(-c2ccccc2)c(=O)n2n1C1Cc3ccccc3C12` (stereo not drawn), the TGI in test [1], in test [3], in test [4], in test [5], in test [6] and in test [7] was greater than 100 µM each time. The compound also displayed a TGI in test [8] greater than 100 µM.

As to `CC(C)(C)OC(=O)N1CCC2(C)CC(=O)CC=C12` (stereo not drawn), the TGI in test [1], in test [2], in test [3], in test [4], in test [5] and in test [6] was greater than 100 µM in each case. Moreover, the TGI in test [7] and in test [8] was greater than 100 µM each time.

Turning to `COCn1cnc2c(=O)n(-c3ccc(OC)cc3)c(=S)n(-c3ccc(OC)cc3)c21`, the TGI in test [3], in test [4], in test [5], in test [6], in test [7] and in test [8] was greater than 100 µM each time.

For the compound `O=[N+]([O-])c1cc2c(c([N+](=O)[O-])c1)NCc1ccccc1O2`, the TGI in test [2], in test [3], in test [4], in test [5], in test [7] and in test [8] was greater than 100 µM each time.

Turning to `Cc1cc2nc(N3C(=O)/C(=C/c4ccccc4S)N=C3c3ccccc3)sc2cc1C`, the TGI in test [1] is greater than 100 µM; in test [4] it was greater than 100 µM; in test [5], greater than 100 µM; in test [6] it was greater than 100 µM; in test [7], greater than 100 µM; in test [8] it was 86 µM.

For `O=S(Nc1ccccc1)c1ccc(Cl)c(Cl)c1` (stereo not drawn), the TGI in test [1], in test [2], in test [3], in test [4], in test [5] and in test [7] was greater than 100 µM in each case. The same compound showed a TGI in test [8] greater than 100 µM.

Take `O=C(Nc1ccccc1)n1[nH]c(=O)n(-c2ccccc2)c1=O`: the TGI in test [1], in test [2], in test [3], in test [4], in test [6] and in test [7] was greater than 100 µM throughout. The compound further had a TGI in test [8] greater than 100 µM.

Regarding `COc1cc(/C=C2\C(=O)N(c3ccccc3Cl)C(c3ccccc3)S2(=O)=O)cc(OC)c1OC` (stereo not drawn), the TGI is greater than 100 µM in test [1]; 89.3 µM in test [2]; greater than 100 µM in test [3]; greater than 100 µM in test [4]; greater than 100 µM in test [6]; greater than 100 µM in test [7]. In test [8], this compound returned a TGI greater than 100 µM.

Consider `CN(N)/N=N/c1nc[nH]c1[N+](=O)[O-]`, for which the TGI in test [2], in test [3], in test [4], in test [5], in test [6] and in test [7] was greater than 100 µM throughout. This compound also showed a TGI in test [8] of 60.9 µM.

`CC1=C(C(=O)N(C(C)C)C(C)C)CC(C(=O)N(C(C)C)C(C)C)=C(C)N1`: the TGI in test [1], in test [3], in test [4], in test [5], in test [6] and in test [7] was greater than 100 µM throughout. Also, in test [8], the TGI was greater than 100 µM.

In the case of `COc1c(Br)cc(/C=C(\C#N)c2cccnc2)cc1Br`, the TGI in test [1], in test [2], in test [3], in test [4], in test [5] and in test [6] was greater than 100 µM in each case. Besides, the TGI in test [7] is greater than 100 µM.

Regarding `COc1ccc(C2=NN(C(N)=S)C(c3ccccc3)C2)cc1` (stereo not drawn), the TGI was greater than 100 µM in test [1]; 82.2 µM in test [2]; greater than 100 µM in test [3]; greater than 100 µM in test [4]; greater than 100 µM in test [5]; greater than 100 µM in test [6]. For the same compound, in test [7], the TGI was greater than 100 µM.

Regarding `C=CCN1C(=O)/C(=C/c2ccc(C)cc2)NC1=S`, the TGI in test [1], in test [3], in test [4], in test [5], in test [6] and in test [7] was greater than 100 µM in each case. This compound also gave a TGI in test [8] greater than 100 µM.

For `CC(C)(C)c1ccc(-n2c3nc(=O)n(-c4ccccc4CO)c(=O)c-3cc3ccccc32)cc1`, the TGI in test [1], in test [2], in test [3], in test [4], in test [5] and in test [7] was greater than 100 µM in each case. In test [8], this compound had a TGI greater than 100 µM.

Regarding `S=C1CSc2c(ccc3ccccc23)N1`, the TGI in test [1], in test [2], in test [3], in test [5], in test [6] and in test [7] was greater than 100 µM throughout. In test [8], the TGI is greater than 100 µM.

Regarding `O=C1CCCC1C(O)(C(F)(F)F)C(F)(F)F` (stereo not drawn), the TGI in test [1], in test [2], in test [3], in test [4], in test [5] and in test [7] was greater than 100 µM each time. This compound also showed a TGI in test [8] greater than 100 µM.

Turning to `CN1C(=O)C(c2c[nH]c3ccccc23)N(C)C(=O)C1c1c[nH]c2ccccc12` (stereo not drawn), the TGI in test [2], in test [4], in test [5], in test [6], in test [7] and in test [8] was greater than 100 µM in each case.

Consider `COC(=O)[C@@H](NC(=O)N(CCC#N)CCCN(C(=O)N[C@H](Cc1ccccc1)C(=O)OC)c1ccccc1)C(C)C`, for which the TGI was greater than 100 µM in test [1]; 92.7 µM in test [2]; greater than 100 µM in test [3]; greater than 100 µM in test [4]; greater than 100 µM in test [5]; greater than 100 µM in test [6]. The TGI in test [8] was greater than 100 µM.

`C=CCc1ccccc1CC1(OCC)OC(=O)c2ccccc21` (stereo not drawn): the TGI in test [1], in test [3], in test [4], in test [5], in test [6] and in test [7] was greater than 100 µM each time. In test [8], the TGI is greater than 100 µM.

In the case of `COc1ccc(/C=C2\N=C(SC)N(CN3CCCCC3)C2=O)cc1`, the TGI in test [1], in test [2], in test [3], in test [4], in test [5] and in test [6] was greater than 100 µM in each case. The TGI in test [8] was greater than 100 µM.

For `CC1(C)C/C(=N/O)c2c(nc3ccc4ccccc4c3c2-c2ccc(Cl)cc2)C1`, the TGI is greater than 100 µM in test [1]; 46.3 µM in test [3]; 77.9 µM in test [4]; 31.6 µM in test [5]; 34.7 µM in test [6]; 19.7 µM in test [7]. Besides, the TGI in test [8] was found to be 24.4 µM.

With `C=CC[C@@]1([C@H](C=C)COCc2ccc(OC)cc2)CC[C@]2(C)OC(C)(C)[C@@H](c3ccccc3)N2C1=S`, the TGI in test [1], in test [2], in test [3], in test [4], in test [6] and in test [7] was greater than 100 µM throughout. This compound registered a TGI in test [8] greater than 100 µM.

In the case of `COC(=O)c1c2c(cc3c1CC1(Cc4ccc(C(C)=O)cc4C1)C3)CCC2` (stereo not drawn), the TGI in test [2] was 61.9 µM; in test [3], greater than 100 µM; in test [4] it was greater than 100 µM; in test [5], greater than 100 µM; in test [6], greater than 100 µM; in test [7] it was greater than 100 µM. The same compound registered a TGI in test [8] greater than 100 µM.

The values are drawn from PubChem BioAssay (NCI).
